Laboratory results from patent US7781393B2, “Methods for inhibiting tumor cell growth” (Dana-Farber Cancer Institute, Inc., priority 2004, dated 2010).

Columns and labels:
[1] = test system: VEGF secretion by myeloma cells and BMSCs; experiment: VEGF ELISA, MM cells and BMSCs alone and in co-culture; assay type: cell-based, human; settings: 500 nM for 24 hrs
Description: Flow cytometric analyses for IGF-1R, and IGF-2R were performed as previously described on a EPICS-XL-MCL flow cytometer (Beckman Coulter). Previously described protocols were applied for immunoblotting analyses; TRAP telomerase activity assay; 20S proteasome chymotryptic activity assay; DNA binding activity ELISAs for quantitative assessments of NF-κB and HIF-1a transcriptional activities. VEGF and IGF-1 ELISAs were performed according to manufacturer's instructions (R&D Systems, Minneapolis, Minn.).

primary MM tumor cells = experiment: MTT survival assay, short-term culture of primary MM tumor cells; assay type: cell-based, human; settings: all primary patient samples tested
Source text: The dexamethasone (Dex)-sensitive parental line MM-1S and its Dex-resistant subline MM-1R cells were kindly provided by Dr Steven Rosen (Northwestern University, Chicago, Ill.); the chemo-sensitive parental MM cell line RPMI-8226/S, and its chemo-resistant sublines RPMI-8226/Dox40 (doxorubicin-resistant), RPMI-8226/MR20 (mitoxantrone-resistant), RPMI-8226/LR5 (melphalan-resistant) cells were kindly provided by Dr William Dalton (lee Moffitt Cancer Center, Tampa, Fla.); the OCI-My5 cells were provided by Dr Meissner (University of Ontario, Toronto, Canada); the EJM, LP-1, KMM1, K620, OPM-1, and OPM-2 cells were provided by Dr Leif Bergsagel; INA-6 cells were provided by Renate Burger (University of Erlangen-Nuernberg, Germany); XG-1 cells were obtained from Dr Pierfrancesco Tassone (University of Magna Grecia, Italy); NCI-H929 and U266 cells were purchased from American Type Cell Culture (ATCC); MM-1S-myrAkt and MM-1S-Bcl-2 cells were established by stable transfection of MM-1S cells with constructs encoding for constitutively active myristoylated form of Akt and for Bcl-2, respectively. […] Purity (>95%) was assessed by both morphology and flow cytometry (Becton-Dickinson FACSort, Franklin Lakes, N.J.). […]

MM-1S-Luc human MM cells = experiment: Model of diffuse skeletal MM lesions, bioluminescence imaging and survival; assay type: in vivo
Description: Briefly, male (6 to 8-week old) SCIDI/NOD mice (Jackson Laboratories, Bar Harbor, Me.) were sublethally irradiated (300 rads) using ^137CS γ-irradiator source. After 3-6 hours, 5×10^6 MM-1S-luc^+ cells in 100 μL of phosphate-buffered saline (PBS) was injected via the tail vein into each mouse. Mice were monitored daily for changes in their body weight, signs of infection, and paralysis, and weekly by whole-body bioluminescence imaging utilizing the In Vivo Imaging System (IVIS, Xenogen Corp, Alameda, Calif.) with total imaging time of 2 min, bin 2. Total body bioluminescence was quantified by integrating the photonic flux (photons/sec) through a standardized region of interest encompassing each mouse (Living Images, Xenogen). […] Melphalan (Alkeran, GlaxoSmithKline, Research Triangle Park, N.C.) was formulated according to manufacturer's instructions, and was administered by i.p. injection. All animal studies were approved by the Dana-Farber Cancer Institute Animal Care and Use Committee.
Statistical significance for in vitro assay results was examined by 2-way analysis of variance, followed by Duncan's post-hoc test. Statistical significance for bioluminescence imaging studies was determined by two-tailed student's t-test. In all analyses, P<0.05 was considered statistically significant. For assessment of in vivo anti-tumor activity, the overall survival of mice was defined as the time between i.v. injection of tumor cells and sacrifice or, death and was compared across different treatment groups with Kaplan-Meier survival analysis.
The in vivo anti-tumor activity of IGF-1R inhibition in a mouse xenograft model of MM was examined. The MM cell line MM-1S was engineered to stably express firefly luciferase fused to a selectable marker (neomycin phosphotransferase or enhanced GFP). Sub-lethally irradiated NOD/SCID mice were injected intravenously with MM-1S-Luc cells and tumor distribution was followed by serial whole-body non-invasive imaging of visible light emitted by luciferase-expressing tumor cells upon injection of mice with luciferin.
Sublethally irradiated NOD/SCID mice were injected with MM1S-Luc cells, and serially imaged to monitor tumor burden. After 2-3 weeks, cohorts of mice with similarly increasing tumor burden were divided into control and treatment groups.

[2] = monotherapy 10 mg/kg i.p. twice daily

SMILES: Nc1ncnc2c1c(-c1cccc(OCc3ccccc3)c1)cn2[C@H]1C[C@H](CN2CCCC2)C1 [ADW-742, trans-5-(3-benzyloxy-phenyl)-7-(3-pyrrolidin-1-ylmethyl-cyclobutyl)-7H-pyrrolo[2,3-d]pyrimidin-4-ylamine]
- constitutive and co-culture-induced secretion of VEGF [1]: suppresses
- serum-induced growth of primary MM patient samples (primary MM tumor cells): completely suppresses
- treatment-related toxicity (MM-1S-Luc human MM cells; 10 mg/kg i.p. twice daily): no other significant treatment-related toxicity
- median overall survival (MM-1S-Luc human MM cells; 10 mg/kg i.p. twice daily for 19 days, control 21 days, P=0.02 log-rank): 38 days
- anti-tumor activity, pulsatile administration (MM-1S-Luc human MM cells; 10 mg/kg i.p. twice daily, 4 days per week, alone): no significant anti-tumor activity
- body weight (MM-1S-Luc human MM cells; 10 mg/kg i.p. twice daily, between treatment groups, P=0.82): no difference in body weight
- survival, combination with melphalan (MM-1S-Luc human MM cells; melphalan 2.5 mg i.p once a week followed by ADW-742 10 mg/kg i.p. twice daily, 4 days per week): synergistic effect in prolonging the survival of mice
- survival of mice (MM-1S-Luc human MM cells; [2]): prolongs the survival of mice
- tumor growth (MM-1S-Luc human MM cells; [2]): significantly suppresses tumor growth
- anti-tumor efficacy, further studies (MM-1S-Luc human MM cells; second study same i.p. dosing, third study orally 50 mg/kg twice daily): Consistent results
